Consider one compound from PMC11838007, “Contribution of telacebec to novel drug regimens in a murine tuberculosis model” (Antimicrobial Agents and Chemotherapy, 2024).

Assay [1] deals with Rv0678_2 mutant. It is filed as cell-based, Mycobacterium tuberculosis.
Assay [2] has as its system Rv0678_J4 mutant. It counts as cell-based, Mycobacterium tuberculosis.

In brackets after ≈: the same amount, converted by molar mass.

For `CCc1nc2ccc(Cl)cn2c1C(=O)NCc1ccc(N2CCC(c3ccc(OC(F)(F)F)cc3)CC2)cc1` [Telacebec, telacebec], the MIC (usually the lowest concentration found to suppress growth) in assay [1] came out at 8 ng/mL (≈ 0.0144 µM); in assay [2] it was 4 ng/mL (≈ 0.00718 µM).
